The results in this text go back to paper PMC12384620, “Hit-to-Lead Studies of Pyrazinylpiperazines against Visceral Leishmaniasis: Pharmacokinetic Profile and In Vivo Efficacy of Potent Compounds against Leishmania infantum” (ACS Pharmacology & Translational Science, 2025).

Data set [1] relates to L. infantum promastigotes. In words: Antileishmanial activity against promastigotes (MTS). To be noted: Leishmania infantum, 72 h. Type of data set: cell-based. As for the experimental part:
L. infantum promastigotes (MHOM/MA/67/ITMAP-263) were cultured in complete Schneider medium (SigmaAldrich, St. Louis, MO, USA), which consisted of Schneider medium plus 10% heat-inactivated fetal bovine serum (FBS, SigmaAldrich) pH 7.4, at 24 °C. The L. infantum promastigotes were plated at a concentration of 10^5 parasites/mL, and 2 was added at concentrations of 64, 32, 16, 8, 4, 2, 1, 0.5, 0.25, and 0.125 μM. The cells were cultured for 72 h and, after the incubation time, cell proliferation was measured by colorimetric MTS assay. The cells in each well were stained with 20 μL of MTS (Promega, G3580) for 3 h, and the OD at 490 nm was determined with a microplate reader. All experiments were independently repeated at least three times.

Data set [2] is described as follows: Hepatotoxicity in HepG2 cells (MTS). The settings on record: human, read-out: CC50 against HepG2 cells. Type of data set: cell-based. The method, then: HepG2 cells were seeded at 2 × 10^4 cells/mL in DMEM, the plates were incubated for 24 h (5% CO2, 37 °C) and the compounds and doxorubicin (used as a positive control) were added in serial dilutions. After 72 h incubation, 15 μL of MTS reagent (CellTiter96) was added to each well, and the plates were incubated for 4 h then read using a microplate absorbance reader at 490 nm. Growth inhibition was expressed as a percentage of the absorbance of the negative control wells.

Data set [3] has as its system L. infantum::tdTomato intracellular amastigotes. In words: Synergism between 2 and Sb^III against intracellular L. infantum amastigotes. The format is cell-based, Leishmania infantum. The method, then: Cells derived from the human monocytic strain THP-1 were cultured in complete Rowell Park Memorial Institute (RPMI)-1640 medium (supplemented with 10% fetal bovine serum, 100 U/mL penicillin, and 100 μg/mL streptomycin). Monocytes were differentiated into macrophages by the addition of 20 ng/mL phorbol myristate acetate (PMA). After 72 h, the macrophages (5 × 10^4), in black 96-well microtiter plates (Corning Incorporated, Corning, NY), were infected with Leishmania (Leishmania) infantum (MHOM/BR/1974/PP75) promastigotes expressing red fluorescence protein on the second day of the stationary phase (20 parasites per macrophage) for 4 h. […] To investigate the possibility of synergism between Sb^III and compound 2, […] different concentrations of these drugs were used (1.0, 0.5, 0.2, 0.1, and 0.05 μg/mL), the solutions of Sb^III and 2 being prepared and diluted the day of the assay. The compounds were tested separately and in combination. […] The EC50 values were determined by nonlinear regression using a Variable slope model (log(concentration) vs growth inhibition) with the GraphPadPrism v8.2.0 (CA, USA) software. By normalizing the data as a fractional response, it was possible to perform the calculation using a Bayesian model. The results were compared to each other to determine whether the combination of compounds has a synergistic, antagonistic or additive effect. Controls with uninfected cells, untreated infected cells, infected cells treated with amphotericin B at 0.25 μM (positive control) or DMSO 1% were used. Quadruplicates were run on the same plate, and the experiments were repeated at least once.

The test system of data set [4] is L. infantum promastigotes. In words: Flow cytometric cell cycle analysis (PI). The format is cell-based, Leishmania infantum. The settings on record: 24 h, 0.5x, 1x, 2x IC50, PI. As for the experimental part:
Then, the cells were collected, washed twice with 1 × PBS, and fixed in 70% ethanol at 4 °C for 24 h. The fixed parasites were then washed with 1 × PBS and the pellet was treated with 500 μL of RNase A (20 mg/mL) and incubated at 37 °C for 1 h. Subsequently, the parasites were stained with 10 μg/mL propidium iodide (PI) in the dark for 20 min. Cell cycle distribution, determining the percentage of cells in G0, G1, S, and G2/M phases, was analyzed using an Accuri C5 BD flow cytometer. The histograms presented are representative of results obtained from three independent experiments.

Another data set concerns L. infantum::tdTomato. Type of data set: in vivo, mouse. To be noted: for parasitemia reduction in the spleen / parasitemia reduction in the liver: 20 dpi, vs untreated control. As for the experimental part: BALB/c mice (male, 6 to 8 weeks old, 18 to 20 g) were inoculated intravenously (tail vein) with 2 × 10^7 late-log-phase L. infantum promastigotes from Li::tdTomato lines, and randomly assigned into one of the four treatment groups (six mice per group). After 7 days of infection, […] was administered intraperitoneally in a single dose 500 mg/kg/day meglumine antimoniate (Glucantime, Sanofi Medley), both groups treated with 2 received two daily intraperitoneal injections totaling either 50 mg/kg/day or 100 mg/kg/day of 2, and the control group was administered the vehicle solution. For the intraperitoneal injection, 2 was formulated as follows: a stock solution of 2 in DMSO (100 mg/mL) was prepared daily, and a solution of 70% PBS1X, 20% PEG 400 (Polyethylene Glycol 400, Sigma-Aldrich), 0.16% Tween 80 and 10% of 2 (from the stock solution) was prepared. The control group was also administered this solution, replacing 2 with 10% DMSO. All mice were euthanized 3 days after the end of the treatment, and the liver and spleen of each animal were collected.
The number of viable parasites in each organ was determined using a quantitative limiting dilution assay. Briefly, the organs were macerated using an Ultra-Turrax disperser (IKA-Werke GmbH & Co. KG., Staufen, Germany), and a tissue homogenate was obtained with 1 mL of M199 medium. Each tissue homogenate was sequentially diluted (10-fold) in 96-well flat-bottom microtiter black plates and incubated at 26 °C for 10 days. The wells containing motile promastigotes were identified with an inverted microscope (Axiovert 25, Zeiss), and the parasite burden was determined from the highest dilution at which promastigotes had grown after 10 days of incubation.

As usually defined, the IC50 is the point on the concentration scale where inhibition reaches its midpoint. In general, CC50 refers to the concentration that lowers cell viability or growth by half.

Read-outs that look alike come from different tables or passages of the source. Some results are limits rather than exact numbers.

Take `O=C(c1ccc(O)cc1)N1CCN(c2cnccn2)CC1` [Compound 2, (4-Hydroxyphenyl)(4-(pyrazin-2-yl)piperazin-1-yl)methanone]: the IC50 came to 7.93 µM in data set [1] and 3.1 ± 1.3 µM in data set [3] (Leishmania infantum, 72 h, read-out: IC50 against intracellular amastigotes of L. infantum). The CC50 at 72 h in data set [2] is > 64 µM. For the same compound, the “effect of the combination of 2 and Sb^III (Bayesian model)” value in data set [3] (combination of 2 with Sb^III, in vitro against L. infantum) is on record as “antagonistic”. In addition, the “effect on cell cycle progression” value in data set [4] was “G0/G1 phase cell cycle arrest”. The “parasitemia reduction in the spleen” value in the data set on L. infantum::tdTomato (50 mg/kg/day i.p., 10 days) was 80.0%; with L. infantum::tdTomato (100 mg/kg/day i.p., 10 days) it was 91.1%. Further, the “parasitemia reduction in the liver” value is 44.4% with L. infantum::tdTomato (50 mg/kg/day i.p., 10 days, not significant) and 90.0% in the data set with L. infantum::tdTomato (100 mg/kg/day i.p., 10 days). In addition, the parasitemia reduction entry with L. infantum::tdTomato (100 mg/kg/day, 7-day treatment (as printed in the conclusion)) is reported as “over 90%”. In addition, the “death among treated mice” value in the data set with L. infantum::tdTomato (50 and 100 mg/kg/day i.p., 10 days) was “No death”. Further, in the data set with L. infantum::tdTomato (50 and 100 mg/kg/day i.p., 10 days, infected BALB/c mice), the “external signs of acute toxicity during and after treatment” value is listed as “No external signs of acute toxicity”.
